According to patent publication US20250051862A1, “METHODS AND COMPOSITIONS RELATED TO ENGINEERED BIOSENSORS” (priority 2021, published 2025):
Converted amounts (≈) assume the structure as drawn.

T1: RamR (Salmonella typhimurium, UniProt Q8ZR43)
T1 construct: expressed in transfected cells; host or cells: E. coli DH10B co-transformed with pReg (regulator) and pGFP (reporter)
T1 sequence (Q8ZR43 whole entry, looked up): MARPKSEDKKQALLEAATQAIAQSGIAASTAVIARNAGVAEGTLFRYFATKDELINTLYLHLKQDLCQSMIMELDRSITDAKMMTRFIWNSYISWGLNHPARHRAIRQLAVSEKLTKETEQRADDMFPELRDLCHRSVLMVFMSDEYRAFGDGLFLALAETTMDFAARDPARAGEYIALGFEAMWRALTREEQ


Tests used:
[1] = Solubility limit of BIAs in 1% DMSO; format: physicochemical; conditions: used as maximum ligand concentration
Method: (a) Transfer functions for all four generations of RamR variants with five different BIAs. The maximum ligand concentration was chosen based on the compound's solubility limit in 1% DMSO, 100 μM for Noscapine and 250 μM for all other BIAs. Fluorescent measurements for each condition were an average of three biological replicates. (b) Background fluorescence measurements for all RamR generations. The same promoter was used to express variants from each evolutionary trajectory (see methods) (c) Orthogonality matrix of all evolved sensors. Fold-response is shown for all BIAs for the native RamR protein, the first, second, third, and fourth generations from top to bottom, respectively. 100 μM of the indicated BIA was applied in all conditions. Measurements for each condition were an average of three biological replicates.

RamR = molecular target: T1, RamR; experiment: Biosensor response assay: fluorescence response of multidrug resistance regulators to target BIAs; format: cell-based, Escherichia coli; conditions: E. coli DH10B, pReg + pGFP (sfGFP); glaucine 1 mM, noscapine 100 uM, papaverine 500 uM, rotundine 250 uM, tetrahydropapaverine 1 mM
Method: To identify a biosensor with some degree of BIA affinity to serve as a suitable scaffold for evolution, the responsiveness of six well characterized multidrug resistance regulators, QacR, TtgR, RamR, SmeT, NalD, and Bm3R1 to the target BIAs were assayed. Regulators were constitutively expressed on one plasmid (pReg) that was co-transformed with another plasmid bearing the regulator's cognate promoter expressing sfGFP (pGFP). Promoters for QacR and TtgR were obtained from the literature while promoters for the remainder were designed by either placing the sensor's operator downstream a medium strength promoter (Bm3R1) or by modifying the −35 or −10 regions of the sensor's native promoter towards the E. coli consensus (NalD, SmeT, RamR) [18*, 18**] if necessary to produce sufficient transcription (FIG. 7a). The ability of each regulator to repress transcription was confirmed by measuring the promoter activity with and without the expression of the cognate sensor via fluorescence (FIG. 7b). […]
Promoters for TtgR and QacR were derived from the literature. […] 100 μL of the cell resuspension for each condition was transferred to a 96 well microtiter plate (Corning, Product #: 3904), from which the fluorescence (Ex: 485 nm, Em: 509 nm) and absorbance ([…]) was measured using the Tecan Infinite M1000 plate reader.

Row | Molecule | solubility limit in 1% DMSO [1] [µM] | Fluorescence response to target BIAs (RamR)
1 | COc1ccc2c(c1OC)C(=O)O[C@@H]2[C@H]1c2c(cc3c(c2OC)OCO3)CCN1C [Noscapine, noscapine] | 100 (≈ 41.3 µg/mL) | –
2 | RamR: multidrug resistance regulator from Salmonella typhimurium, template for sensor evolution (protein, Description of sequence peptide sensor; Name PAP4; This sensor binds to papaverine, multidrug resistance regulator from Salmonella typhimurium, template for sensor evolution) MVARPKSEDKKQALLEAATQAIAQSGIAASTAVIARNAGVAEGTLFRYFATKDELINTLYLHLRQDLCQSLIMELDRSITDAKMMMRFIWNSGISWGLNHPARHRAIRQLAVSEKLTKETHQRDLDMFPELRDILHRRVLMVFMSDEYRAFGDGLFLALAETTMDFAARDPARAGEYIALGFEAMWRALTREEQ | – | moderately responsive
